# In a melting point compilation (Tetko et al.; mined from patent text by program, amines drawn as free bases though some values may be those of a salt):
row,SMILES,melting point [°C]
1,Cn1c(Oc2cccc(C(F)(F)F)c2)nc2c(-c3cccc(C(=O)NCC(N)=O)c3)cccc21,185 to 186
2,CCNCC1CN(c2c(F)cc3c(=O)c(C(=O)O)cn(C4CC4)c3c2F)CC1C (stereo unspecified),224 to 226
3,CN(C(=O)C1CC1)c1cccc(-c2ccnc3c(C(=O)c4ccco4)cnn23)c1,207 to 209
4,CC(=O)Nc1cccc2c1CN(c1ccc3ccn(C)c3c1)C2=O,180 to 184
5,CN(CCOc1ccc(CC2SC(=O)NC2=O)cc1)c1nccs1 (stereo unspecified),186
6,CCCCCCCCCCc1ccnc(C(=O)NCC(=O)O)c1,79 to 81
7,CCOC(=O)C(CC(=O)c1cccc(Cl)c1)(NC(C)=O)C(=O)OCC,84 to 86
8,CCOC(=O)C1=C(C)NC(C)=C(C(=O)OCCN2CCN(C(c3ccc(C)cc3)c3ccc(C)cc3)CC2)C1c1cccc(Cl)c1Cl (stereo unspecified),85 to 88
9,Cc1ccsc1-c1nc(COc2ccc(CCCn3ccnc3)cc2)co1,72 to 73
10,Oc1ccc(-c2nnc(CSCCOc3ccccc3)n2-c2ccccc2)cc1,214 to 216
11,COc1ccc(SC(C)(CC=C(C)C)C(=O)NO)cc1 (stereo unspecified),89
12,CCCS(=O)(=O)n1ccc2ccc(N=C3NCCN3)cc21,213
13,CCOC(=O)CN(N)C(=O)Nc1ccccc1C(=O)C1CCCCC1,108 to 110
14,Cc1cnc2c(C#N)c(C)nn2c1-c1ccccc1,208 to 210
15,Cc1cc2c(c(C)c1NC=O)C(c1ccc(C(C)C)cc1)CO2 (stereo unspecified),193 to 196
16,Cc1cc(Cl)cc2c(=O)oc(-c3cc(OCC(F)(F)F)nn3-c3ncccc3Cl)nc12,178 to 180
17,C=CCC(Cc1ccc(OC)c(OCCc2ccccc2)c1)NC(=O)OC(C)(C)C (stereo unspecified),94.5 to 95.3
18,CCCc1c(OCCCCCOc2ccc(CCCCC(=O)O)cc2CCC(=O)O)ccc2c1OCCC2=O,101 to 104
19,CCOC(=O)c1cccc(Nc2ncc3cc(-c4c(Cl)cccc4Cl)c(=O)n(C)c3n2)c1,238 to 240
20,COc1cc(N(C)C)ccc1-c1nc2c(N[C@H]3[C@@H](C(N)=O)[C@@H]4C=C[C@H]3C4)ccnc2[nH]1,185 to 190
21,CCCCCCCCCCCCCCN(C(=O)CCCCCCCCCCC)C1(N)OC(CO)C(O)C(O)C1C(=O)CNC(=O)C(C)(N)C(=O)C(C)N (stereo unspecified),132 to 134
22,CC1NC(=O)NN=C1c1ccc(NC(=O)CN2CCOCC2)cc1 (stereo unspecified),244 to 247
23,CCCc1cc(C(=O)OCC)ccc1O,78 to 79
24,CCCCCCCc1ccnc2c(O)cccc12,92 to 93.5
25,Cc1nc2cc(NC(=O)c3cc4cccnc4n3Cc3cccc(F)c3)ccc2n1C,242 to 244
26,CN1CCN(c2nn(S(=O)(=O)c3ccccc3)c3ccc(Cl)cc23)CC1,145 to 147

row,SMILES,melting point [°C]
1,CC1=NN(c2ccccc2)C(=O)C1C(=O)Nc1ccc(O)cc1 (stereo unspecified),135 to 140
2,O=C(O)/C=C\C=C(c1ccccc1)c1ccccc1,175 to 176
3,CC1CCCN1CCCN1CCN(CCCN2CCC(F)(F)C2)C1=C(C#N)C#N (stereo unspecified),99 to 102
4,COC(=O)C1=Cc2cc(OCc3ccc(Cl)cc3)ccc2S(=O)(=O)CC1,130 to 133
5,CC(C)(C)[Si](C)(C)Oc1ccc(-c2ccccc2C=C2SC(=O)NC2=O)cc1C12CC3CC(CC(C3)C1)C2,277 to 278
6,c1cnc2cc(C34CCCN3CCC4)oc2c1,39 to 41
7,CCCCC(=Nc1sc(Cl)cc1C(=O)NCCC)OC,110 to 112
8,COCCOc1cc2ncc(C#N)c(Nc3ccc(C)c(O)c3)c2cc1OC,230 to 233
9,C=C1c2c(C)cccc2NC(=O)N1CC(=O)OCC,151 to 154
10,CCOCc1nc2c(N)nc3cc(S(C)(=O)=O)ccc3c2n1CCCOC,166 to 168
11,Nc1nc(-c2ccccc2)c(-c2ccnc(Nc3cccc(CO)c3)n2)s1,214 to 215
12,C=C(C(=O)OC(C)(C)C)C(O)c1ccc(C(=O)OC)cc1 (stereo unspecified),70
13,COc1ccc2ccc(N3C(=O)c4ccccc4C3CC(=O)CCN(C)C)nc2n1 (stereo unspecified),140
14,O=C1CCCCC1c1cnc2ccccc2c1 (stereo unspecified),114 to 115
15,Cc1ccc(S(=O)(=O)OC[C@H]2OC(=O)N[C@H]2Cc2ccccc2)cc1,149 to 150
16,CCCN(CCC)CC1CCn2c(nc3ccccc32)S1 (stereo unspecified),82 to 84
17,Nc1nc(N)nc(Cc2nc3ccccc3n2-c2ccccc2)n1,337 to 340
18,Cn1cc(C(=O)NCc2ccc(Cl)cc2)c(=O)c2cc(CO)sc21,222 to 225
19,NC(=NO)c1cc2c(cn1)[nH]c1ccccc12,159 to 163
20,CC(C)(C)CC(C)(C)c1ccc(N)c([N+](=O)[O-])c1,104 to 107
21,Cc1nn(C)c2nc(C(C)C)c(CO)c(-c3ccc(F)cc3)c12,166 to 168
22,COc1ccc(OC)c2c1CCC(O)C2 (stereo unspecified),128 to 129
23,CCOP(=O)(OCC)c1ccc(C(=O)O)cc1,101
24,S=C1CN=C(c2ccccc2)c2ccsc2N1,208 to 210
25,COc1cc2ncnc(N3CCC(CN4C=CC(C)=NS4(=O)=O)CC3)c2cc1OC,203 to 207
